According to US20200323823A1, “METHODS FOR THE TREATMENT OF DEPRESSION” (Praxis Precision Medicines, Inc., priority 2018, published 2020):
Like-named read-outs stand apart in the source and are kept apart here.

Columns and labels:
clinical = conditions: human, in vivo; for AUC(0-inf): AUCinf
Experimental: (§2) Healthy subjects aged 18 to 55 years were treated with an oral suspension of Compound 1 to study the safety, tolerability, pharmacokinetics and pharmacodynamics of Compound 1 in healthy subjects.
(§3) The study was a randomized, double-blind, placebo-controlled multiple escalating dose study comprised of 3 cohorts that each received an oral suspension. Each cohort consisted of two groups: one group treated with Compound 1 and another treated with placebo. In each cohort, the ratio of Compound 1-treated subjects to placebo-treated subjects was 3:1.
(§4) The Compound 1-treated subjects of Cohort 1 were treated with 15.0 mg of Compound 1 once per day (QD). The Compound 1-treated subjects of Cohort 2 were treated with 30.0 mg of Compound 1 QD. The Compound 1-treated subjects of Cohort 3 were treated with 60.0 mg of Compound 1 QD.
(§5) Patients in each cohort were treated with Compound 1 for 14 consecutive days, unless dosing was halted by the Safety Review Committee (SRC). The dosing of subjects in each of the cohorts was staggered with the decision to dose escalate based on SRC review of a minimum of 14 days of observation of safety and tolerability data and review of the available plasma PK data from the preceding cohort(s). Thus, dose escalation was predicated on tolerability of the prior cohorts.
(§6) Compound 1 was administered under fasted conditions (no food or drink, except water, for at least 10 hours prior to dosing). Immediately after administration of Compound 1, the subject was be administered 240 mL water. No additional fluid intake was allowed until 1 hour after Compound 1 administration.
(§7) Cohort 1 subjects received a single 15.0 mg dose of a Compound 1 suspension on the morning of Days 1-14. Cohort 2 subjects received a single 30.0 mg dose of a Compound 1 suspension on the morning of Days 1-14. Cohort 3 subjects received a single 60.0 mg dose of a Compound 1 suspension on the morning of Days 1-14. For all cohorts, the last treatment was administered on the morning of Day 14.
(§8) Data were obtained from the blood plasma samples collected from each cohort according to the schedule provided.
(§9) Plasma samples were analyzed to determine Compound 1 concentrations using a validated assay method. Pharmacokinetic variables (including but not limited to Cmax, Tmax and AUC(0-last)), were calculated using non-compartmental analysis. PK parameters for Compound 1 were derived from the plasma concentration data using non-compartmental analysis with Phoenix™ WinNonlin® v 8.0 (Pharsight Corporation, USA).
(§10) For each cohort, blood samples were collected on Days 1, 2, 3, 4, 5, 6 and 14 at the following time points: Day 1 at pre-dose (0 hour), 0.25, 0.5, 0.75, 1, 1.5, 2, 2.5, 3, 4, 6, 8, 12, 16 h post-dose; Day 2 at pre-dose (24 h), Day 3 at pre-dose (48 h), Day 4 at pre-dose (72 h), Day 5 at pre-dose (96 h), Day 6 at pre-dose (120 h); Day 14 at pre-dose 0.25, 0.5, 0.75, 1, 1.5, 2, 2.5, 3, 4, 6, 8, 12, 16, 24, 36, 48, and 72 hours. Trough level blood samples were collected on Days 2, 3, 4, 5, 6 and 14, prior to the morning dose administrations.
(§11) Descriptive statistics were calculated for plasma and urine PK parameter and concentration data, and summarized by study day and time point. Arithmetic means, coefficient of variation (CV), standard deviation, median, minimum, and maximum values, and number of observations were calculated for all PK parameters and trough concentration data. Except for Tmax, the geometric mean, geometric standard deviation, and geometric CV were provided for all PK parameter and concentration data.

[1] = Safety/tolerability in MDD patients, Part A; format: in vivo, human; conditions: 80 mg Cohort, compared to the 45 mg Cohort
Experimental: (§1) In Part A, participants were administered daily doses of Compound 1 (45 mg Cohort and 80 mg Cohort) at 4 PM on Day 1 and qHS on all other study days for 7 days inpatient followed by 7 days outpatient (with subsequent Cohorts receiving up to 120 mg qHS). Participants checked into the clinic on Day 1. During this period the following assessments were performed: adverse event assessments, vital signs, physical examinations, blood and urine samples for safety assessments, ECGs, C-SSRS assessments, blood samples for PK, and efficacy assessments (HAM-D, MADRS, HAM-A, CGI [CGI-S and CGI-I], PSQI, and SDQ). Baseline assessments occurred on Day 1 prior to administration of study drug. On Day 8, prior to discharge, participants were supplied with sufficient Compound 1 to complete 7 days of dosing.
Adverse events (AEs) will be monitored throughout the duration of the study.

[2] = Food Effect Cohort (Cohort 4), single 30 mg dose fasted vs high-fat, high calorie meal, plasma PK; conditions: human, po, t 1/2, Cohort 4, single 30 mg oral, n = 10, Mean (SD)
Experimental: (§12) The Day 1 dose was administered after a minimum of 10 hour fasting. No additional fluid intake was allowed until 1 hour after drug administration. A standard meal was given at least 4 hours post-dose. The Day 5 dose was administered following a high-fat, high calorie meal. Participants remained at the clinical site for a total of 8 days to complete PK sampling after the second dose.
(§13) Pharmacokinetic variables (including but not limited to Cmax, Tmax and AUC(0-last)), were calculated using non-compartmental analysis.
(§14) Urine (Cohort 4): No urine analysis was conducted in Cohort 4.

[3] = tested on: patients with severe major depressive disorder (MDD); assay: Open-label study in severe MDD, Part A, HAM-D efficacy; format: in vivo, human
Experimental: The study is an open-label, study comprised of two dosing periods, Part A and Part B, during which patients were treated with an oral suspension of Compound 1. Part A was an open-label assessment of two dose levels of Compound 1 (45 mg qHS Cohort 1 and 80 mg qHS Cohort, i.e., once daily administration at bedtime) administered for 7 days inpatient followed by 7 days outpatient. PRAX-114 was administered at 4 PM on Day 1 in order to collect post-dosing PK samples that could not be collected with qHS dosing.
as §1
Patients were administered daily doses of Compound 1 for 7 days inpatient followed by 7 days outpatient.
In the 45 mg Cohort, patients were administered once daily dose of 45 mg of Compound 1 at bedtime for 7 days inpatient followed by once daily dose of 45 mg of Compound 1 at bedtime for 7 days outpatient.
In the 80 mg Cohort, patients were administered once daily dose of 80 mg of Compound 1 at bedtime for 7 days inpatient followed by once daily dose of 80 mg of Compound 1 at bedtime for 7 days outpatient.
In Part A, HAM-D, MADRS, HAM-A, CGI-S, and CGI-I values were collected in the morning of Days 1, 2, 3, 4, 5, 6, 7, 8, 15, 21 and 28. PSQI and SDQ values will be collected on Days 1, 8, 15, 21 and 28. Part B: In Part B, HAM-D, MADRS, HAM-A, CGI-S, CGI-I, PSQI and SDQ values will be collected on the days described for Part A.
HAM-D Response was defined as a reduction from baseline of ≥50% in total HAM-D score. HAM-D remission was defined as a total HAM-D score of ≤7.
For both parts of the clinical trial, the HAM-D total score and change from baseline values will be summarized by treatment group and time point. In addition, the change from baseline in HAM-D total score will also be analyzed using paired t-tests or similar methods. The null hypothesis of this test is that the mean difference in HAM-D total score between paired observations (i.e., pre- and post-treatment) is zero. Similar analysis methods will be used for all secondary and exploratory efficacy variables.

[4] = human, in vivo
Experimental: as §2, §3, §4, §5, §6, §7, §8, §9, §10, §11

[5] = Randomized, double-blind, placebo-controlled multiple escalating dose study, plasma PK of Compound 1 oral suspension (Cohorts 1-3); conditions: for Vd/F: Vz/F
Experimental: as §2, §3, §4, §5, §6, §7, §8, §9, §10, §11

[6] = in vivo, po
Experimental: as §12, §13, §14

[7] = Cohort 1, 15.0 mg QD oral, Day 14, Mean
[8] = Cohort 2, 30.0 mg QD oral, Day 14, Mean

Structure (SMILES): COC[C@@]1(O)CC[C@@]2(C)[C@@H](CC[C@@H]3[C@@H]2CC[C@]2(C)[C@@H](C(=O)Cn4ccnc4)CC[C@@H]32)C1 [Compound 1, 3α-Hydroxy-3β-methoxymethyl-21-(1′-imidazolyl)-5α-pregnan-20-one]
- Tmax (clinical): ≤ 2 h
- AUC (clinical; po, 15 mg, AUC0-tau): 362 ng·h/mL
- AUC(0-inf) (clinical; po, 15 mg): 600 ng·h/mL
- AUC (clinical; po, 15 mg, AUCss): 492 ng·h/mL
- Cmax (clinical; po, 15 mg): 56 ng/mL
- Cmax (clinical; po, 15 mg, ss): 65 ng/mL
- Tmax (clinical; po, 15 mg): 1.03 h
- Tmax (clinical; po, 15 mg, ss): 1.07 h
- AUC (clinical; po, 30 mg, AUC0-tau): 842 ng·h/mL
- AUC(0-inf) (clinical; po, 30 mg): 1230 ng·h/mL
- AUC (clinical; po, 30 mg, AUCss): 1020 ng·h/mL
- Cmax (clinical; po, 30 mg): 133 ng/mL
- Cmax (clinical; po, 30 mg, ss): 164 ng/mL
- Tmax (clinical; po, 30 mg, ss): 0.964 h
- AUC (clinical; po, 60 mg, AUC0-tau): 2340 ng·h/mL
- AUC(0-inf) (clinical; po, 60 mg): 2370 ng·h/mL
- AUC (clinical; po, 60 mg, AUCss): 2080 ng·h/mL
- Cmax (clinical; po, 60 mg): 364 ng/mL
- Cmax (clinical; po, 60 mg, ss): 355 ng/mL
- Tmax (clinical; po, 60 mg): 1.14 h
- Tmax (clinical; po, 60 mg, ss): 0.969 h
- tolerability / Adverse Event profile [1]: well tolerated with no change in Adverse Event profile
- half-life ([2]; Fasted (Day 1)): 11.2 h
- half-life ([2]; Fed (Day 1 as printed)): 11.3 h
- least squares Mean Change from Baseline in HAM-D score ([3]; 45 mg Cohort, Day 7): −17.8
- least squares Mean Change from Baseline in HAM-D score ([3]; 45 mg Cohort, Day 15): −13.2
- patients who met the HAM-D Response or Remission criterion ([3]; 45 mg Cohort, once daily at bedtime, Day 7): 11 of the 13
- patients who met the HAM-D Response or Remission criteria ([3]; 45 mg Cohort, once daily at bedtime, Day 15): 8 of the 13
- least squares Mean Change from Baseline in HAM-D score ([3]; 80 mg Cohort, Day 7): −20.0
- least squares Mean Change from Baseline in HAM-D score ([3]; 80 mg Cohort, Day 15): −16.0
- patients who met the HAM-D Response or Remission criteria ([3]; 80 mg Cohort, once daily at bedtime, Day 15): 6 of the 7
- Efficacy by background antidepressant ([3]; as monotherapy and in combination with another antidepressant): Efficacy was observed
- symptoms of moderate to severe MDD ([3]; daily dose of 45 mg or 80 mg): exhibited reduced symptoms of moderate to severe MDD
- dose dependence of Cavg, AUCss and AUCinf [4]: proportional increase
- dose dependence of Cmax and AUC parameters at steady state ([4]; po): approximate proportional increase
- steady state clearance ([4]; po): approximately 31 L/h
- accumulation factor of the dosing interval (ratio of AUCDay 14/AUCDay 1) ([4]; po, 15 mg): approximately 1.25
- Cmax ([4]; po, 30 mg): 156.00 ng/mL
- accumulation factor of the dosing interval (ratio of AUCDay 14/AUCDay 1) ([4]; po, 30 mg): approximately 1.25
- Tmax ([4]; po, 60 mg): 1.00 h
- accumulation factor of the dosing interval (ratio of AUCDay 14/AUCDay 1) ([4]; po, 60 mg): 0.89
- CLss/F ([5]; Cohort 1, 15.0 mg QD oral, Day 14, Geo Mean): 30.497 L/h
- CLss/F [5, 7]: 31.415 L/h
- t1/2 [5, 7]: 14.772 h
- CLss/F ([5]; Cohort 1, 15.0 mg QD oral, Day 14, Median): 30.41 L/h
- CLss/F ([5]; Cohort 2, 30.0 mg QD oral, Day 14, Geo Mean): 30.178 L/h
- CLss/F [5, 8]: 30.949 L/h
- t1/2 [5, 8]: 12.701 h
- CLss/F ([5]; Cohort 2, 30.0 mg QD oral, Day 14, Median): 30.12 L/h
- CLss/F ([5]; Cohort 3, 60.0 mg QD oral, Day 14, Geo Mean): 30.398 L/h
- CLss/F ([5]; Cohort 3, 60.0 mg QD oral, Day 14, Mean): 32.142 L/h
- CLss/F ([5]; Cohort 3, 60.0 mg QD oral, Day 14, Median): 28.45 L/h
- Vd/F ([5]; human, plasma, po, 15 mg, Cohort 1, 15.0 mg QD oral, Day 14, Geo Mean): 643 L
- Vd/F ([5]; human, plasma, po, 15 mg, Cohort 1, 15.0 mg QD oral, Day 14, Mean): 655 L
- Vd/F ([5]; human, plasma, po, 15 mg, Cohort 1, 15.0 mg QD oral, Day 14, Median): 657 L
- half-life ([5]; human, plasma, po, 15 mg, t1/2, Cohort 1, 15.0 mg QD oral, Day 14, Geo Mean): 14.6 h
- half-life ([5]; human, plasma, po, 15 mg, t1/2, Cohort 1, 15.0 mg QD oral, Day 14, Mean): 14.8 ± 2.26 h
- half-life ([5]; human, plasma, po, 15 mg, t1/2, Cohort 1, 15.0 mg QD oral, Day 14, Median): 15.3 h
- Cmax ([5]; human, plasma, po, 30 mg, Cmax, Cohort 2, 30.0 mg QD oral, Day 1, Geometric Mean): 120 ng/mL
- Vd/F ([5]; human, plasma, po, 30 mg, Cohort 2, 30.0 mg QD oral, Day 14, Geo Mean): 551 L
- Vd/F ([5]; human, plasma, po, 30 mg, Cohort 2, 30.0 mg QD oral, Day 14, Mean): 570 L
- Vd/F ([5]; human, plasma, po, 30 mg, Cohort 2, 30.0 mg QD oral, Day 14, Median): 514 L
- half-life ([5]; human, plasma, po, 30 mg, t1/2, Cohort 2, 30.0 mg QD oral, Day 14, Geo Mean): 12.6 h
- half-life ([5]; human, plasma, po, 30 mg, t1/2, Cohort 2, 30.0 mg QD oral, Day 14, Mean): 12.7 ± 1.23 h
- half-life ([5]; human, plasma, po, 30 mg, t1/2, Cohort 2, 30.0 mg QD oral, Day 14, Median): 12.9 h
- Vd/F ([5]; human, plasma, po, 60 mg, Cohort 3, 60.0 mg QD oral, Day 14, Geo Mean): 533 L
- Vd/F ([5]; human, plasma, po, 60 mg, Cohort 3, 60.0 mg QD oral, Day 14, Mean): 574 L
- Vd/F ([5]; human, plasma, po, 60 mg, Cohort 3, 60.0 mg QD oral, Day 14, Median): 531 L
- half-life ([5]; human, plasma, po, 60 mg, t1/2, Cohort 3, 60.0 mg QD oral, Day 14, Geo Mean): 12.2 h
- half-life ([5]; human, plasma, po, 60 mg, t1/2, Cohort 3, 60.0 mg QD oral, Day 14, Mean): 12.2 ± 1.32 h
- half-life ([5]; human, plasma, po, 60 mg, t1/2, Cohort 3, 60.0 mg QD oral, Day 14, Median): 12.4 h
- half-life ([5]; human, plasma, po, mean t1/2, steady state, across Cohorts 1-3 (15.0-60.0 mg QD oral)): 12.2 to 14.8 h
- Tmax ([6]; human): 1.00 (0.75, 1.77) h
- Cmax higher under fasting conditions compared to fed conditions ([6]; human, 30 mg): 1.5-1.6 times
- t½, fasted versus fed conditions [6]: similar
